Among the data in patent publication EP4706657A1, “COMBINATION THERAPY OF PEXIDARTINIB AND NINTEDANIB FOR PREVENTION OR TREATMENT OF PULMONARY FIBROSIS” (Korea Institute of Radiological & Medical Sciences, priority 2023, dated 2024) are degree of fibrosis values, retold here.

For experiment [1], the system named is pulmonary fibrosis induced by bleomycin. Put plainly: Inhibitory effect on pulmonary fibrosis induced by bleomycin in mice (Micro-CT, H&E and Masson's Trichrome staining, survival). Particulars: bleomycin sulfate 1.5 U/kg, male C57BL/6 mice; each drug 60 mg/kg orally once daily for two weeks starting 14 days after bleomycin; Micro-CT 4 weeks after bleomycin; compared to untreated group. Format: in vivo. The procedure: Each drug was administered starting 14 days after the administration of bleomycin. The control drugs, nintedanib and pexidartinib (IM-1), were both administered at a dose of 60 mg/kg, and the co-administration group was orally administered nintedanib (60 mg/kg) with IM-1 (60 mg/kg) once daily for two weeks (a total of 13 administrations). Additionally, to analyze the degree of inflammatory response and the degree of fibrosis, H&E staining and Masson's Trichrome staining were performed. In addition, the mouse survival rate was compared in FIG. 3.

In experiment [2] the test system is radiation-induced pulmonary fibrosis. In words: Inhibitory effect on radiation-induced pulmonary fibrosis in mice (Micro-CT, H&E and Masson's Trichrome staining). The class given is in vivo. Particulars: SBRT 90 Gy, 4 mm collimator, male C57BL/6 mice; each drug 60 mg/kg orally daily, starting one hour before irradiation; Micro-CT two weeks after radiation exposure; compared to untreated group. From the text:
Seven-week-old male C57BL/6 mice were divided into groups treated with IM-1, nintedanib, and the combination of the two drugs (IM-1 + nintedanib). One hour before stereotactic body radiation therapy (SBRT; 90 Gy, 4 mm collimator), the drugs were orally administered to the mice. The degree of pulmonary fibrosis and the inhibitory effect on radiation-induced lung injury were observed two weeks after radiation exposure. The IM-1 and nintedanib groups were each administered the respective drug daily at a dose of 60 mg/kg, and the combination group was administered both drugs daily at 60 mg/kg each. Additionally, to analyze the degree of inflammatory response and the degree of fibrosis, H&E staining and Masson's Trichrome staining were performed.

`COC(=O)c1ccc2c(c1)NC(=O)/C2=C(\Nc1ccc(N(C)C(=O)CN2CCN(C)CC2)cc1)c1ccccc1` [nintedanib, methyl (3Z)-3-{[(4-{methyl[(4-methylpiperazin-1-yl)acetyl]amino}phenyl)amino](phenyl)methylidene}-2-oxo-2,3-dihydro-1H-indole-6-carboxylate]: the degree of fibrosis result in experiment [1] and in experiment [2] was “a reduction in the degree of fibrosis” each time.

In the case of `FC(F)(F)c1ccc(CNc2ccc(Cc3c[nH]c4ncc(Cl)cc34)cn2)cn1` [IM-1, 5-((5-chloro-1H-pyrrolo[2,3-b]pyridin-3-yl)methyl)-N-((6-(trifluoromethyl)pyridin-3-yl)methyl)pyridin-2-amine], the degree of fibrosis entry in experiment [1] and in experiment [2] was “a reduction in the degree of fibrosis” throughout.
